Measured values as given in patent US4489094A, “Arylalkylaminobenzoic acids” (American Cyanamid Company, priority 1983, dated 1984).

The compounds below were run against T1, fatty acyl CoA: cholesterol acyl transferase (ACAT) (Rattus norvegicus, UniProt O70536) (assay: Inhibition of enzymatic esterification of cholesterol (ACAT), rat adrenal microsomal supernatant). Conditions: final concentration of test compound 5.2 μg./ml.; percent inhibition of the ACAT enzyme compared to control values.
T1 construct: Rat adrenals were homogenized; from tissue; host or cells: rat adrenals, 1,000 x g supernatant containing the microsomal fraction
T1 sequence (O70536 1-545): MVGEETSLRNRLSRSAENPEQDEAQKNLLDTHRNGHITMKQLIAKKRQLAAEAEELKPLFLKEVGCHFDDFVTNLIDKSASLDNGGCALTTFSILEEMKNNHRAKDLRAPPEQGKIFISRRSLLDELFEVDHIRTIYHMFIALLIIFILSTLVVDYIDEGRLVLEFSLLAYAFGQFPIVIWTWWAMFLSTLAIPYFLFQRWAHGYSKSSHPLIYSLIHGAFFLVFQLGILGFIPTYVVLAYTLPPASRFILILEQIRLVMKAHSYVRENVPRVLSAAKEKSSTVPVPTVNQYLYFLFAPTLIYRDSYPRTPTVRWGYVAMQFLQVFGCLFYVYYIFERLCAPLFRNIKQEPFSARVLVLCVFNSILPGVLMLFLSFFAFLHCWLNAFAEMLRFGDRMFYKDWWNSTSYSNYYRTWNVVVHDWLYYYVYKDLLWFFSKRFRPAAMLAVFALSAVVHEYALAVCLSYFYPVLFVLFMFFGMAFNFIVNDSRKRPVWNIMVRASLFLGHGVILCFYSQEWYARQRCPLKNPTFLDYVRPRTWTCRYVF
Format: biochemical
Experimental: The compounds of the present invention were tested for their ability to inhibit the enzymatic esterification of cholesterol according to the following procedure:
Rat adrenals were homogenized in 0.2M monobasic potassium phosphate buffer, pH 7.4, and centrifuged at 1,000 times gravity for 15 minutes at 5° C. The supernatant, containing the microsomal fraction, served as the source of the cholesterol-esterifying enzyme, fatty acyl CoA: cholesterol acyl transferase (ACAT). A mixture comprising 50 parts of adrenal supernatant, 10 parts of albumin (BSA) (50 mg./m.), […], 3 parts of test compound, and 500 parts of buffer was pre-incubated at 37° C. for 10 minutes. After treatment with 20 parts of oleoyl CoA (^14 C-0.4 μCi), the mixture was incubated at 37° C. for 10 minutes. A control mixture, omitting the test compound, was prepared and treated in the same manner. The lipids from the incubation mixture were extracted into an organic solvent and separated by thin-layer chromatography. The cholesterol ester fraction was counted in a scintillation counter. This procedure is a modification of that described by Hashimoto, et al. Life Scie., 12 (Part II), 1-12 (1973).
The results of this test on representative compounds of this invention appear in Table I. The final concentration of the test compound was 5.2 μg./ml., and effectiveness of the compound is expressed as percent inhibition of the ACAT enzyme compared to control values.

Structure (SMILES) | inhibition at 5.2 µg/mL [%]
CCOC(=O)c1ccc(NCCC(c2ccc(Cl)cc2)c2ccc(Cl)cc2)cc1 [4-[[3,3-Bis(p-chlorophenyl)propyl]amino]benzoic acid, ethyl ester] | 89
CCN(CCCc1ccc(Cl)cc1)c1ccc(C(=O)O)cc1 [4-[[3-(p-Chlorophenyl)propyl]ethylamino]benzoic acid] | 33
O=C(O)c1ccc(NCCC(c2ccc(Cl)cc2)c2ccc(Cl)cc2)cc1 [4-[[3,3-Bis(p-chlorophenyl)propyl]amino]benzoic acid] | 21
CCOC(=O)c1ccc(N(CC)CCCc2ccc(Cl)cc2)cc1 [4-[[3-(p-Chlorophenyl)propyl]ethylamino]benzoic acid, ethyl ester] | 48
O=C(O)c1ccc(NCC(c2ccc(Cl)cc2)c2ccc(Cl)cc2)cc1 [4-[[2,2-Bis(p-chlorophenyl)ethyl]amino]benzoic acid] | 19
CCOC(=O)c1ccc(NCC=C(c2ccc(Cl)cc2)c2ccc(Cl)cc2)cc1 [4-[[3,3-Bis(p-chlorophenyl)allyl]amino]benzoic acid, ethyl ester] | 81
CN(CCCc1ccc(Cl)cc1)c1ccc(C(=O)O)cc1 [4-[[3-(p-Chlorophenyl)propyl]methylamino]benzoic acid] | 24
O=C(O)c1ccc(NCC=C(c2ccc(Cl)cc2)c2ccc(Cl)cc2)cc1 [4-[[3,3-Bis(p-chlorophenyl)allyl]amino]benzoic acid] | 46
O=C(O)c1ccc(N(CCCc2ccc(Cl)cc2)CCCc2ccc(Cl)cc2)cc1 [4-[Bis[3-(p-chlorophenyl)propyl]amino]benzoic acid] | 33
CCOC(=O)c1ccc(N(C)CCCc2ccc(Cl)cc2)cc1 [4-[[3-(p-Chlorophenyl)propyl]methylamino]benzoic acid, ethyl ester] | 53
O=C(O)c1ccc(NCc2ccc(Cl)cc2)cc1 [4-[[(p-chlorophenyl)methyl]amino]benzoic acid] | 6
CCOC(=O)c1ccc(NC(c2ccc(Cl)cc2)c2ccc(Cl)cc2)cc1 [4-[[Bis(p-chlorophenyl)methyl]amino]benzoic acid, ethyl ester] | 55
